Measured values reported in patent US9556190B2, “Piperidinyloxy lactone orexin receptor antagonists” (MERCK SHARP & DOHME CORP., priority 2013, dated 2017).

Legend:
[1] = biological target: hOX1R (Homo sapiens, UniProt O43613); assay: FLIPR Ca2+ Flux Assay, CHO cells expressing orexin-1 receptor; assay type: cell-based; details: 70 pM Ala-6,12 orexin-A agonist
[2] = biological target: human orexin-2 receptor (Homo sapiens (Human), UniProt O43614); assay: FLIPR Ca2+ Flux Assay, CHO cells expressing orexin-2 receptor; assay type: cell-based; details: 70 pM Ala-6,12 orexin-A agonist, read-out: hOX2R FLIPR IC50
Method: The utility of the compounds in accordance with the present invention as orexin receptor OX1R and/or OX2R antagonists may be readily determined without undue experimentation by methodology well known in the art, including the “FLIPR Ca^2+ Flux Assay” (Okumura et al., Biochem. Biophys. Res. Comm. 280:976-981, 2001). In a typical experiment the OX1 and OX2 receptor antagonistic activity of the compounds of the present invention was determined in accordance with the following experimental method. For intracellular calcium measurements, Chinese hamster ovary (CHO) cells expressing the rat orexin-1 receptor or the human orexin-2 receptor, are grown in Iscove's modified DMEM containing 2 mM L-glutamine, […], 1% hypoxanthine-thymidine supplement, 100 U/ml penicillin, 100 μg/ml streptomycin and 10% heat-inactivated fetal calf serum (FCS). The cells are seeded at 20,000 cells/well into Becton-Dickinson black 384-well clear bottom sterile plates coated with poly-D-lysine. All reagents were from GIBCO-Invitrogen Corp. The seeded plates are incubated overnight at 37° C. and 5% CO2. Ala-6,12 human orexin-A as the agonist is prepared as a 1 mM stock solution in 1% bovine serum albumin (BSA) and diluted in assay buffer (HBSS containing 20 mM HEPES, 0.1% BSA and 2.5 mM probenecid, pH7.4) for use in the assay at a final concentration of 70 pM. Test compounds are prepared as 10 mM stock solution in DMSO, then diluted in 384-well plates, first in DMSO, then assay buffer. On the day of the assay, cells are washed 3 times with 100 μl assay buffer and then incubated for 60 min (37° C., 5% CO2) in 60 μl assay buffer containing 1 μM Fluo-4AM ester, 0.02% pluronic acid, and 1% BSA. The dye loading solution is then aspirated and cells are washed 3 times with 100 μl assay buffer. 30 μl of that same buffer is left in each well. Within the Fluorescent Imaging Plate Reader (FLIPR, Molecular Devices), test compounds are added to the plate in a volume of 25 μl, incubated for 5 min and finally 25 μl of agonist is added. Fluorescence is measured for each well at 1 second intervals for 5 minutes and the height of each fluorescence peak is compared to the height of the fluorescence peak induced by 70 pM Ala-6,12 orexin-A with buffer in place of antagonist. For each antagonist, IC50 value (the concentration of compound needed to inhibit 50% of the agonist response) is determined. Alternatively, compound potency can be assessed by a radioligand binding assay (described in Bergman et. al. Bioorg. Med. Chem. Lett. 2008, 18, 1425-1430) in which the inhibition constant (Ki) is determined in membranes prepared from CHO cells expressing either the OX1 or OX2 receptor. The intrinsic orexin receptor antagonist activity of a compound which may be used in the present invention may be determined by these assays.

human orexin-2 receptor, sequence (O43614 whole entry): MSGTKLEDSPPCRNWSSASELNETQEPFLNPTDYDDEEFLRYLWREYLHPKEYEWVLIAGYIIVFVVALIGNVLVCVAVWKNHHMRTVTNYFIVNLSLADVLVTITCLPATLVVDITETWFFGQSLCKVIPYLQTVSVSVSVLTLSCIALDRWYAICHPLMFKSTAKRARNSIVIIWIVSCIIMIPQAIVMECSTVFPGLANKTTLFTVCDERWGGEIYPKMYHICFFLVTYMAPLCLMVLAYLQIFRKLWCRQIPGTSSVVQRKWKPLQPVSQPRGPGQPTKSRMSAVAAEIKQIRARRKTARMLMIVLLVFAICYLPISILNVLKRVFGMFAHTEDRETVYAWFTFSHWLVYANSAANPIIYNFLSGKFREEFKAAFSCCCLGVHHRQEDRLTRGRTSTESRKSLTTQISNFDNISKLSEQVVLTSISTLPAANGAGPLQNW

Compound	IC50 [1]	IC50 [2]
Cc1cccc(C(=O)N2C[C@H](Oc3nccc4c3C(=O)OC4(C)C)CC[C@H]2C)c1-n1nccn1 [Example 8, 1,1-dimethyl-4-{[(3R,6R)-6-methyl-1-{[3-methyl-2-(2H-1,2,3-triazol-2-yl)phenyl]carbonyl}piperidin-3-yl]oxy}furo[3,4-c]pyridin-3(1H)-one]	3090 nM	43 nM
C[C@@H]1CC[C@@H](Oc2nccc3c2C(=O)OC3(C)C)CN1C(=O)c1cc(Cl)ccc1-n1nccn1 [Example 3, 4-{[(3R,6R)-1-{[5-chloro-2-(2H-1,2,3-triazol-2-yl)phenyl]carbonyl}-6-methylpiperidin-3-yl]oxy}-1,1-dimethylfuro[3,4-c]pyridin-3(1H)-one]	3740 nM	42 nM
COc1ccc(C(=O)N2C[C@H](Oc3nccc4c3C(=O)OC4(C)C)CC[C@H]2C)c(-n2nccn2)c1 [Example 11, 4-{[(3R,6R)-1-{[4-methoxy-2-(2H-1,2,3-triazol-2-yl)phenyl]carbonyl}-6-methylpiperidin-3-yl]oxy}-1,1-dimethylfuro[3,4-c]pyridin-3(1H)-one]	10000 nM	147 nM
C[C@@H]1CC[C@@H](Oc2nccc3c2COC3=O)CN1C(=O)c1cscc1-n1nccn1 [Example 30, 4-{[(3R,6R)-6-methyl-1-{[4-(2H-1,2,3-triazol-2-yl)-thiophen-3-yl]car-bonyl}piperidin-3-yl]oxy}furo[3,4-c]pyridin-1(3H)-one]	10000 nM	26 nM
Cc1nc(-c2c(F)cccc2C(=O)N2C[C@H](Oc3nccc4c3C(=O)OC4(C)C)CC[C@H]2C)no1 [Example 16, 4-{[(3R,6R)-1-{[3-fluoro-2-(5-methyl-1,2,4-oxadiazol-3-yl)phenyl]carbonyl}-6-methylpiperidin-3-yl]oxy}-1,1-dimethylfuro[3,4-c]pyridin-3(1H)-one]	10000 nM	90 nM
C[C@@H]1CC[C@@H](Oc2nccc3c2C(=O)OC3(C)C)CN1C(=O)c1ccc(Cl)cc1-n1nccn1 [Example 9, 4-{[(3R,6R)-1-{[4-chloro-2-(2H-1,2,3-triazol-2-yl)phenyl]carbonyl}-6-methylpiperidin-3-yl]oxy}-1,1-dimethylfuro[3,4-c]pyridin-3(1H)-one]	3740 nM	54 nM
C[C@@H]1CC[C@@H](Oc2nccc3c2C(=O)OC3(C)C)CN1C(=O)c1ccccc1-c1ncccn1 [Example 22, 1,1-Dimethyl-4-{[(3R,6R)-6-methyl-1-{[2-(pyrimidin-2-yl)phenyl]carbonyl}piperidin-3-yl]oxy}furo[3,4-c]pyridin-3(1H)-one]	3260 nM	76 nM
Cc1noc(-c2ccc(F)cc2C(=O)N2C[C@H](Oc3nccc4c3C(=O)OC4(C)C)CC[C@H]2C)n1 [Example 18, 4-{[(3R,6R)-1-{[5-fluoro-2-(3-methyl-1,2,4-oxadiazol-5-yl)phenyl]carbonyl}-6-methylpiperidin-3-yl]oxy}-1,1-dimethylfuro[3,4-c]pyridin-3(1H)-one]	10000 nM	90 nM
C[C@@H]1CC[C@@H](Oc2nccc3c2COC3=O)CN1C(=O)c1ccccc1-n1nccn1 [Example 28, 4-{[(3R,6R)-6-Methyl-1-{[2-(2H-1,2,3-triazol-2-yl)phenyl]carbonyl}piperidin-3-yl]oxy}furo[3,4-c]pyridin-1(3H)-one]	4670 nM	16 nM
Cc1ccc(-n2nccn2)c(C(=O)N2C[C@H](Oc3nccc4c3C(=O)OC4(C)C)CC[C@H]2C)c1 [Example 5, 1,1-dimethyl-4-{[(3R,6R)-6-methyl-1-{[5-methyl-2-(2H-1,2,3-triazol-2-yl)phenyl]carbonyl}piperidin-3-yl]oxy}furo[3,4-c]pyridin-3(1H)-one]	2510 nM	54 nM
C[C@@H]1CC[C@@H](Oc2nccc3c2COC3=O)CN1C(=O)c1ccccc1-c1ncccn1 [Example 36, 4-({(3R,6R)-6-methyl-1-[(2-pyrimidin-2-ylphenyl)car-bonyl]piperidin-3-yl}oxy)furo[3,4-c]pyridin-1(3H)-one]	3100 nM	20 nM
C[C@@H]1CC[C@@H](Oc2nccc3c2C(=O)OC3(C)C)CN1C(=O)c1ccsc1-n1nccn1 [Example 20, 1,1-Dimethyl-4-{[(3R,6R)-6-methyl-1-{[2-(2H-1,2,3-triazol-2-yl)thiophen-3-yl]carbonyl}piperidin-3-yl]oxy}furo[3,4-c]pyridin-3(1H)-one]	10000 nM	39 nM
Cc1noc(-c2cc(F)ccc2C(=O)N2C[C@H](Oc3nccc4c3C(=O)OC4(C)C)CC[C@H]2C)n1 [Example 19, 4-{[(3R,6R)-1-{[4-fluoro-2-(3-methyl-1,2,4-oxadiazol-5-yl)phenyl]carbonyl}-6-methylpiperidin-3-yl]oxy}-1,1-dimethylfuro[3,4-c]pyridin-3(1H)-one]	10000 nM	382 nM
C[C@@H]1OC(=O)c2c1ccnc2N[C@@H]1CC[C@@H](C)N(C(=O)c2ccccc2-n2nccn2)C1 [Example 46, (1S)-1-methyl-4-{[(3R,6R)-6-methyl-1-{[2-(2H-1,2,3-triazol-2-yl)phenyl]carbonyl}piperidin-3-yl]amino}furo[3,4-c]pyridin-3(1H)-one]	≥ 10000 nM	28 nM
C[C@@H]1CC[C@@H](Oc2nccc3c2COC3=O)CN1C(=O)c1ccsc1-n1nccn1 [Example 29, 4-{[(3R,6R)-6-methyl-1-{[2-(2H-1,2,3-triazol-2-yl)thiophen-3-yl]carbonyl}piperidin-3-yl]oxy}furo[3,4-c]pyridin-1(3H)-one]	3160 nM	16 nM
C[C@@H]1CC[C@@H](Oc2nccc3c2C(=O)OC3(C)C)CN1C(=O)c1ccsc1-c1ncccn1 [Example 25, 1,1-dimethyl-4-(((3R,6R)-6-methyl-1-(2-(pyrimidin-2-yl)thiophene-3-carbonyl)piperidin-3-yl)oxy)furo[3,4-c]pyridin-3(1H)-one]	9110 nM	44 nM
C[C@@H]1CC[C@@H](Oc2nccc3c2COC3=O)CN1C(=O)c1ccc(F)cc1-n1nccn1 [Example 32, 4-{[(3R,6R)-1-{[4-fluoro-2-(2H-1,2,3-triazol-2-yl)phenyl]-carbonyl}-6-methyl-piperidin-3-yl]oxy}furo[3,4-c]pyridin-1(3H)-one]	8290 nM	15 nM
Cc1nc(-c2ccc(F)cc2C(=O)N2C[C@H](Oc3nccc4c3C(=O)OC4(C)C)CC[C@H]2C)no1 [Example 14, 4-{[(3R,6R)-1-{[5-fluoro-2-(5-methyl-1,2,4-oxadiazol-3-yl)phenyl]carbonyl}-6-methylpiperidin-3-yl]oxy}-1,1-dimethylfuro[3,4-c]pyridin-3(1H)-one]	10000 nM	76 nM
C[C@@H]1CC[C@@H](Oc2nccc3c2C(=O)OC3(C)C)CN1C(=O)c1c(F)cccc1-n1nccn1 [Example 6, 4-(((3R,6R)-1-(2-fluoro-6-(2H-1,2,3-triazol-2-yl)benzoyl)-6-methylpiperidin-3-yl)oxy)-1,1-dimethylfuro[3,4-c]pyridin-3(1H)-one]	2710 nM	13 nM
C[C@@H]1CC[C@@H](Oc2nccc3c2C(=O)OC3(C)C)CN1C(=O)c1cccc(F)c1-n1nccn1 [Example 7, 4-{[(3R,6R)-1-{[3-fluoro-2-(2H-1,2,3-triazol-2-yl)phenyl]carbonyl}-6-methylpiperidin-3-yl]oxy}-1,1-dimethylfuro[3,4-c]pyridin-3(1H)-one]	10000 nM	132 nM
C[C@@H]1CC[C@@H](Oc2nccc3c2C(=O)OC3(C)C)CN1C(=O)c1ccccc1-n1nccn1 [Example 1, 1,1-Dimethyl-4-{[(3R,6R)-6-methyl-1-{[2-(2H-1,2,3-triazol-2-yl)phenyl]carbonyl}piperidin-3-yl]oxy}furo[3,4-c]pyridin-3(1H)-one]	8290 nM	20 nM
C[C@@H]1CC[C@@H](Nc2nccc3c2C(=O)OC3(C)C)CN1C(=O)c1ccsc1-c1ncccn1 [Example 44, 1,1-Dimethyl-4-({(3R,6R)-6-methyl-1-[(2-pyrimidin-2-ylthiophen-3-yl)carbonyl]piperidin-3-yl}amino)furo[3,4-c]pyridin-3(1H)-one]	1000 nM	28 nM
